Experimental data reported in US20140004207A1, “Analgesic Apatitic Calcium-Phosphate Cement” (priority 2008, published 2014).

Experiments:
[1] = HPLC and MS analysis of bupivacaine after association and release from CDA; format: physicochemical; conditions: cold isostatic compression; three days in water at 37° C.; HPLC and MS vs native molecule
Procedure: Bupivacaine-loaded CDA (400 mg) was stirred in 5 ml of water for three days at 37° C. The aqueous solution was passed through a microfiltration membrane with a pore size of 0.22 μm. Several aliquots of this solution were diluted to working concentration with HPLC. An aliquot of this solution (1 ml) was extracted with 1 ml of dichloromethane (HiPerSolv for HPLC, VWR-BDH). The organic phase was dried over Na2SO4 for further MS studies. HPLC HP 1100 (C18 column, Inertsil 5 ODS-3), flow: 0.5 ml mn^−1, solvent: acetonitrile/water [80/20], injection volume: 10 μl, detection: 230 nm). The liquid phase was prepared by mixing Acetonitrile for HPLC Gradient Grade (VWR-BDH-Prolabo) with pure water. A thermo Electron Corporation DSQ II bench-top quadruple mass spectrometer fitted with a direct sample probe or GC, with chemical ionization (CI), was used for data acquisition and processing.

[2] = Stability of bupivacaine within the composition on storage; format: physicochemical; conditions: 4° C.
Procedure: The same method was applied to determine the lidocaine release. A first assay confirmed that the bupivacaine within the composition is stable for 3 months at 4° C.

[3] = intrabone injection, percutaneous vertebroplastics; cited from earlier work
[4] = continuous intravenous administration; cited from earlier work

Row | Structure (SMILES) | integrity of bupivacaine after association with CDA granules and release [1] | stability of bupivacaine within the composition [2] | effectiveness versus antalgic protocol comprising nalbuphine and paracetamol [3] | serum levels of lidocaine [3] | postoperative morphine intake [4]
1 | CCCCN1CCCCC1C(=O)Nc1c(C)cccc1C (centres unmarked) [bupivacaine] | remained unchanged | 3 months | – | – | –
2 | CCN(CC)CC(=O)Nc1c(C)cccc1C [lidocaine] | – | – | comparable effectiveness | much below the toxic level | reduction of the postoperative morphine intake
